According to PubChem BioAssay (NCI):
“And” between values parts separate entries of the source, which are not always exact repeats. Equal values may be shown once.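 Cells were grown in 96-well plates and exposed to each compound for 48 hours at five concentrations; endpoints were interpolated linearly between bracketing concentrations, or set to the highest concentration if not reached. GI50 = concentration required for 50% inhibition of growth. TGI: total growth inhibition.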

What was measured:
Assay in all cases: NCI-60 cell line screen, 48 h
SN12C renal = tested on: SN12C renal
HOP-92 NSCLC = tested on: HOP-92 NSCLC
BT-549 breast = tested on: BT-549 breast
HCC-2998 colon = tested on: HCC-2998 colon
RXF 393 renal = tested on: RXF 393 renal
CCRF-CEM leukemia = tested on: CCRF-CEM leukemia
HOP-62 NSCLC = tested on: HOP-62 NSCLC
A498 renal = tested on: A498 renal
NCI-H522 lung = tested on: NCI-H522 lung
CAKI-1 renal = tested on: CAKI-1 renal
LOX IMVI melanoma = tested on: LOX IMVI melanoma
SNB-75 CNS = tested on: SNB-75 CNS
SNB-19 CNS = tested on: SNB-19 CNS
SK-OV-3 ovarian = tested on: SK-OV-3 ovarian
MDA-N = tested on: MDA-N

Compound	TGI (SN12C renal) [µM]	TGI (HOP-92 NSCLC) [µM]	TGI (BT-549 breast) [µM]	TGI (HCC-2998 colon) [µM]	TGI (RXF 393 renal) [µM]	TGI (CCRF-CEM leukemia) [µM]	TGI (HOP-62 NSCLC) [µM]	TGI (A498 renal) [µM]	TGI (NCI-H522 lung) [µM]	TGI (CAKI-1 renal) [µM]	TGI (LOX IMVI melanoma)	TGI (SNB-75 CNS) [µM]	TGI (SNB-19 CNS) [µM]	TGI (SK-OV-3 ovarian) [µM]	TGI (MDA-N)	GI50 (SN12C renal) [µM]	GI50 (LOX IMVI melanoma) [µM]	GI50 (HCC-2998 colon) [µM]	GI50 (CCRF-CEM leukemia) [µM]	GI50 (MDA-N) [µM]
NC(N)=N/N=C\c1c(-c2cccc([N+](=O)[O-])c2)nc2sccn12	4.89	27.6	4.06	5.38	5.8	> 100	> 100	64.1	14.2	45.3	–	–	–	–	–	–	–	–	–	–
O=C(O)CN1CCSc2ccccc2CN(CC(=O)O)CCSc2ccccc2C1	> 100	> 100	–	> 100	–	> 100	> 100	> 100	> 100	> 100	> 100 µM	> 100	> 100	> 100	–	–	–	–	–	–
C[N+]1(C)C2CC(OC(=O)C(CO)c3ccccc3)CC1C1OC12 (centres undefined)	> 100	–	> 100	–	> 100	> 100	> 100	> 100	> 100	> 100	> 100 µM	> 100	> 100	> 100	> 100 µM	–	–	–	–	–
O=C(CC(NC(=O)OCc1ccccc1)C(=O)NC1Cc2ccccc2C1=O)OCc1ccccc1 (centres undefined)	> 100	–	> 100	> 100	> 100	–	> 100	–	> 100	> 100	–	> 100	> 100	> 100	> 100 µM	–	–	–	–	–
CC(NCc1c(O)ccc2c(-c3ccccc3)cc(=O)oc12)C(=O)O (centres undefined)	> 100	> 100	–	> 100	> 100	> 100	> 100	–	> 100	> 100	> 100 µM	> 100	> 100	> 100	> 100 µM	–	–	–	–	–
COC(=NC(C)C)NC(C)C	> 100	> 100	–	> 100	–	> 100	> 100	> 100	–	–	> 100 µM	> 100	> 100	> 100	> 100 µM	–	–	–	–	–
CC(=O)c1ccc(Br)cc1NC1=CC(=O)c2ncccc2C1=O	19.1	26	–	8.54	18.7	32.2	13.1	5.85	10.4	22.3	18.9 µM	5.58	11.3	29.1	3.62 µM	–	–	–	–	–
N/N=c1/nc2n(c3ncccc13)C=CNN2	> 100	> 100	–	> 100	> 100	> 100	> 100	–	> 100	> 100	> 100 µM	–	> 100	> 100	–	–	–	–	–	–
C=CCOC(=O)Cn1cnc2c(N)ncnc21	> 100	–	–	> 100	–	> 100	> 100	> 100	–	> 100	> 100 µM	> 100	> 100	> 100	> 100 µM	–	–	–	–	–
OCC(O)COCn1cc(Cn2ncc3c(SCc4ccccc4)ncnc32)nn1 (centres undefined)	> 100	> 100	> 100	> 100	–	> 100	> 100	> 100	73	> 100	> 100 µM	–	> 100	> 100	–	–	–	–	–	–
N=C(N)SCc1ccc2c(c1)S(=O)(=O)c1ccccc1O2	> 100	42.8	–	56.8	47.5	> 100	42.4	35.1	–	51.7	60.2 µM	28.7	> 100	53.2	77 µM	–	–	–	–	–
COC(=O)c1cc2ccc(O)c(O)c2cn1	17.3	26.3	–	> 100	32.7	> 100	36.2	–	37.9	25.7	5.43 µM and 3.31 µM	36.6	–	92.3	2.89 µM and 3.69 µM	5.22	1.57	> 100	4.62	1.89
NC(N)=N/N=C/c1c(-c2ccccc2[N+](=O)[O-])nc2sccn12	> 100	> 100	> 100	–	32.4	55	69.5	37.7	39.8	> 100	44.4 µM	34.2	77.4	> 100	–	–	–	–	–	–
C=C1CC[C@](C)(O)[C@@]2(C)CC[C@H]3C(=C(C)C)C(=O)C[C@]3(C)C[C@H]12	> 50	> 50	> 50	> 50	> 50	30.9	> 50	> 50	> 50	> 50	28.4 µM	> 50	> 50	> 50	–	–	–	–	–	–
CCN(CC)C(=O)CCn1ccc(=O)[nH]c1=O	> 100	–	–	–	> 100	> 100	> 100	–	> 100	–	> 100 µM	> 100	> 100	–	–	–	–	–	–	–
O=C(Cc1ccccc1)NN1C(=O)C(Cl)C1c1ccc(Cl)cc1 (centres undefined)	> 100	–	–	> 100	> 100	> 100	> 100	–	> 100	> 100	> 100 µM	> 100	> 100	> 100	–	–	–	–	–	–
COCCN(C(=O)c1ccccc1)C1CCC2(SCCS2)c2[nH]c3ccccc3c21 (centres undefined)	> 100	78	–	> 100	87.7	> 100	> 100	> 100	98.8	> 100	> 100 µM	> 100	> 100	–	–	–	–	–	–	–
COc1cc2c(cc1OS(C)(=O)=O)N=C[C@@H]1CCCN1C2=O	> 100	> 100	–	> 100	> 100	> 100	–	> 100	> 100	> 100	> 100 µM	> 100	> 100	> 100	–	–	–	–	–	–
COc1ccc(/C=C/C(=O)c2cc(OC)cc(OC)c2)cc1	13.5	60.4	–	16.3	8.6	10.1	14.6	11.7	6.29	12.9	15.4 µM	8.19	7.3	27.5	5.33 µM	–	–	–	–	–

Compound	TGI (SN12C renal) [µM]	TGI (HOP-92 NSCLC) [µM]	TGI (BT-549 breast) [µM]	TGI (HCC-2998 colon) [µM]	TGI (RXF 393 renal) [µM]	TGI (CCRF-CEM leukemia) [µM]	TGI (HOP-62 NSCLC) [µM]	TGI (A498 renal) [µM]	TGI (NCI-H522 lung) [µM]	TGI (CAKI-1 renal) [µM]	TGI (LOX IMVI melanoma)	TGI (SNB-75 CNS) [µM]	TGI (SNB-19 CNS) [µM]	TGI (SK-OV-3 ovarian) [µM]	TGI (MDA-N)	GI50 (SN12C renal) [µM]	GI50 (LOX IMVI melanoma) [µM]	GI50 (HCC-2998 colon) [µM]	GI50 (CCRF-CEM leukemia) [µM]	GI50 (MDA-N) [µM]
O=C(c1ccc2ccccc2c1)C1(I)S(=O)(=O)OCCOS1(=O)=O	> 100	–	> 100	> 100	–	> 100	> 100	–	–	> 100	–	–	> 100	–	> 100 µM	–	–	–	–	–
COc1cc2nc(-c3cccs3)nc(Nc3cccc([N+](=O)[O-])c3)c2cc1OC	33.2	–	39.7	–	74.1	> 100	36.1	> 100	38.1	36.8	45.7 µM	78.8	33.6	41.5	–	–	–	–	–	–
Cc1ccc(S(=O)(=O)NNC(=O)Nc2cccc(C(F)(F)F)c2)cc1	> 100	> 100	–	> 100	> 100	> 100	> 100	> 100	> 100	> 100	–	53.7	> 100	> 100	> 100 µM	–	–	–	–	–
CCNC1=C(NC(=O)c2ccc(F)cc2)C(=O)c2ccccc2C1=O	> 100	> 100	> 100	> 100	84.4	> 100	> 100	–	> 100	–	–	> 100	> 100	> 100	> 100 µM	–	–	–	–	–
CN(C)CCNc1ccc(NCC[N+](C)(C)Cc2ccc([N+](=O)[O-])cc2)c2c1C(=O)c1c(O)ccc(O)c1C2=O	> 100	–	40.9	–	–	> 100	> 100	> 100	–	> 100	> 100 µM	> 100	> 100	–	69 µM	–	–	–	–	–
C=C(Br)C(C)(Cl)CCC(Br)C(C)(C)Br (centres undefined)	> 100	> 100	–	–	> 100	59.6	> 100	–	> 100	> 100	50.5 µM	> 100	–	> 100	–	–	–	–	–	–
COCN1C(=O)[C@@H]2CCCN2C(=O)c2cc(OC)c(Cc3ccccc3)cc21	> 100	–	> 100	–	> 100	–	> 100	> 100	> 100	> 100	> 100 µM	> 100	> 100	> 100	> 100 µM	–	–	–	–	–
CC1(OCc2ccccc2)C(=O)N2C1NCC2(C)C (centres undefined)	> 100	–	–	> 100	> 100	> 100	> 100	> 100	–	–	> 100 µM	> 100	> 100	–	–	–	–	–	–	–
CC(C)(C)C(=O)/C=C(\OB(F)F)C(C)(C)C	> 100	> 100	–	> 100	> 100	> 100	> 100	> 100	> 100	> 100	> 100 µM	> 100	> 100	> 100	> 100 µM	–	–	–	–	–
O=C(CNc1ccccc1[N+](=O)[O-])Nn1cnc2ccc(S(=O)(=O)Nc3ccccc3[N+](=O)[O-])cc2c1=O	> 100	> 100	> 100	> 100	–	> 100	> 100	–	> 100	> 100	> 100 µM	> 100	> 100	> 100	> 100 µM	–	–	–	–	–
CC1(C)CNC(=O)C2(CCCO2)CNC(C)(C)CNC(=O)C2(CCCO2)CN1 (centres undefined)	> 10	> 10	> 10	> 10	–	> 10	> 10	–	> 10	> 10	> 10 µM	> 10	> 10	> 10	–	–	–	–	–	–
CC(C)OC(=O)NCCn1cc(-c2ccccc2)nn1	> 100	> 100	> 100	> 100	–	> 100	> 100	–	> 100	> 100	> 100 µM	> 100	> 100	–	–	–	–	–	–	–
COc1cc(CN=c2nc(N(C)C)ss2)cc(OC)c1OC	> 10	> 10	–	> 10	> 10	1.56	> 10	> 10	> 10	> 10	4.4 µM	> 10	> 10	> 10	> 10 µM	–	–	–	–	–
CN(Cc1cnc2nc(N)nc(N)c2n1)c1ccc(C(=O)NCCCS(=O)(=O)O)cc1	> 100	–	> 100	> 100	–	–	> 100	> 100	> 100	–	> 100 µM	> 100	> 100	> 100	> 100 µM	–	–	–	–	–
CC(C)[Si](OC12CCC(CC1O)CC2CO)(C(C)C)C(C)C (centres undefined)	60.6	29	–	–	–	31.6	29.9	32	–	39.3	–	26.8	28.6	27.5	–	–	–	–	–	–
CN1CCN(Cn2nc(COc3ccccc3Cl)n(/N=C/c3ccc(-c4ccc(Cl)cc4Cl)o3)c2=S)CC1	–	40.6	–	33.8	32	> 100	45.7	54.1	56.1	50.4	> 100 µM	–	–	> 100	53.8 µM	–	–	–	–	–
CCC(C)N1CN(c2ccccc2)C2(CCN(CC3COc4ccccc4O3)CC2)C1=O (centres undefined)	84.2	–	31.6	38.8	38.1	64.5	41.7	–	68.6	38.4	44.2 µM	> 100	> 100	> 100	64.1 µM	–	–	–	–	–
O=C1c2ccccc2C(=O)N1/N=C1/SC(=Nc2ccccc2)C(=Nc2ccccc2)N1c1ccccc1	> 100	> 100	> 100	> 100	14.3	> 90.3	> 100	> 63.1	> 100	> 100	> 100 µM	> 54.1	> 100	–	–	–	–	–	–	–
